Measurements taken from US20140323504A1, “Pyrazolo[4,3-c]Pyridine Derivatives As Kinase Inhibitors” (Cellzome Limited, priority 2011, published 2014).

Columns and labels:
JAK2 = target: T1, JAK2 (Homo sapiens, UniProt O60674); assay: Kinobeads assay with antibody detection, JAK2; assay type: binding; conditions: mixed Molt4/Ramos lysate, read-out: JAK2 inhibition value (IC50)
T1 construct: endogenous in cells; host or cells: mixed Molt4/Ramos cell lysate (1:2)
Description: (§1) The compounds of the present invention as described in the previous examples were tested in a Kinobeads™ assay as described for ZAP-70 (WO-A 2007/137867). Briefly, test compounds (at various concentrations) and the affinity matrix with the immobilized aminopyrido-pyrimidine ligand 24 were added to cell lysate aliquots and allowed to bind to the proteins in the lysate sample. After the incubation time the beads with captured proteins were separated from the lysate. Bound proteins were then eluted and the presence of JAK1; JAK2, JAK3 and TYK2 was detected and quantified using specific antibodies in a dot blot procedure and the Odyssey infrared detection system. Dose response curves for individual kinases were generated and IC50 values calculated. Kinobeads™ assays for ZAP-70 (WO-A 2007/137867) and for kinase selectivity profiling (WO-A 2006/134056) have been previously described.
(§2) 5×DP buffer: 250 mM Tris-HCl pH 7.4, 25% Glycerol, 7.5 mM MgCl2, 750 mM NaCl, 5 mM Na3VO4; filter the 5×DP buffer through a 0.22 μm filter and store in aliquot at −80° C. The 5×DP buffer is diluted with H2O to 1×DP buffer containing 1 mM DTT and 25 mM NaF.
(§3) Stock solutions of test compounds were prepared in DMSO. In a 96 well plate 30 μL solution of diluted test compounds at 5 mM in DMSO were prepared. Starting with this solution a 1:3 dilution series (9 steps) was prepared. For control experiments (no test compound) a buffer containing 2% DMSO was used.
(§4) Molt4 cells (ATCC catalogue number CRL-1582) and Ramos cells (ATCC catalogue number CRL-1596) were grown in 1 L Spinner flasks (Integra Biosciences, #182101) in suspension in RPMI 1640 medium (Invitrogen, #21875-034) supplemented with 10% Fetal Bovine Serum (Invitrogen) at a density between 0.15×10^6 and 1.2×10^6 cells/mL. Cells were harvested by centrifugation, washed once with 1×PBS buffer (Invitrogen, #14190-094) and cell pellets were frozen in liquid nitrogen and subsequently stored at −80° C. Cells were homogenized in a Potter S homogenizer in lysis buffer: 50 mM Tris-HCl, 0.8% NP40, 5% glycerol, 150 mM NaCl, 1.5 mM MgCl2, 25 mM NaF, 1 mM sodium vanadate, 1 mM DTT, pH 7.5. One complete EDTA-free tablet (protease inhibitor cocktail, Roche Diagnostics, 1873580) per 25 mL buffer was added. The material was dounced 10 times using a mechanized POTTER S, transferred to 50 mL falcon tubes, incubated for 30 minutes on ice and spun down for 10 minutes at 20,000 g at 4° C. (10,000 rpm in Sorvall SLA600, precooled). The supernatant was transferred to an ultracentrifuge (UZ)-polycarbonate tube (Beckmann, 355654) and spun for 1 hour at 100.000 g at 4° C. (33.500 rpm in Ti50.2, precooled). The supernatant was transferred again to a fresh 50 mL falcon tube, the protein concentration was determined by a Bradford assay (BioRad) and samples containing 50 mg of protein per aliquot were prepared. The samples were immediately used for experiments or frozen in liquid nitrogen and stored frozen at −80° C.
(§5) Cell lysate (approximately 50 mg protein per plate) was thawed in a water bath at room temperature and then stored on ice. To the thawed cell lysate 1×DP 0.8% NP40 buffer containing protease inhibitors (1 tablet for 25 mL buffer; EDTA-free protease inhibitor cocktail; Roche. Diagnostics 1873580) was added in order to reach a final protein concentration of 10 mg/mL total protein. The diluted cell lysate was stored on ice. Mixed Molt4Ramos lysate was prepared by combining one volume of Molt4 lysate and two volumes of Ramos lysate (ratio 1:2).
(§6) Plates were sealed and incubated for 3 hours in a cold room on a plate shaker (Heidolph tiramax 1000) at 750 rpm. Afterwards the plate was washed 3 times with 230 μL washing buffer (1×DP 0.4% NP40). The filter plate was placed on top of a collection plate (Greiner bio-one, PP-microplate 96 well V-shape, 65120) and the beads were then eluted with 20 μL of sample buffer (100 mM Tris, pH 7.4, 4% SDS, 0.00025% bromophenol blue, 20% glycerol, 50 mM DTT). […]

Tyk2 = target: T2, Tyk2 (Homo sapiens, UniProt P29597); assay: Kinobeads assay with antibody detection, TYK2; assay type: binding; conditions: mixed Molt4/Ramos lysate, read-out: Tyk2 inhibition value (IC50)
T2 construct: endogenous in cells; host or cells: mixed Molt4/Ramos cell lysate (1:2)
Description: as §1, §2, §3, §4, §5, §6

[1] = tested on: STAT5 phosphorylation in IL-2 stimulated YT cells; assay: pSTAT5 cell assay (IL-2 stimulated YT cells, AlphaScreen); assay type: cell-based; conditions: IL-2 stimulated human YT cells, 1 h compound incubation
Source text: STAT5 phosphorylation represents one of the proximal events in the signalling cascade downstream of JAK3 activation. Therefore STAT5 phosphorylation is an appropriate readout to assess the mechanistic effect of JAK3 inhibition. Stimulation of human YT cells, an NK-like cell line, with interleukin-2 (IL-2) results in phosphorylation of STATS at tyrosine residue 694 (Tyr694) that can be quantitatively measured by immunodetection with specific antibodies and an appropriate detection method, in this case AlphaScreen assay technology.
Human YT cells were grown in RPMI medium (Lonza, BE12-167) with 2 mM L-Glutamine (Invitrogen, 25030-024) and 10% heat-inactivated FBS (Invitrogen, 10106-169) and kept in a humidified incubator (37° C., 5% CO2). Cells were harvested by centrifugation, washed once with HBSS (Invitrogen, 14180-046), resuspended in HESS at 1.5×10^6 cells/ml and 0.9×10^4 cells were seeded in 6 μl per well in a 96 well White plate (PerkinElmer, 6005569).
Test compounds were dissolved in DMSO and a 1:3 dilution series (9 steps) was prepared. To generate a dose response curve, […] of fourfold concentrated compound in 4% DMSO/HBSS were added to each cell sample in the 96 well plate resulting in a final DMSO concentration of 1% DMSO. Cells were incubated for one hour in a humidified incubator (37° C., 5% CO2). To each well 3 μl of a fourfold concentrated IL-2 solution (Recombinant human IL-2, Peprotech 200-02; 120 nM solution in HBSS) was added and incubated for 30 minutes at room temperature. Cells were lysed by adding 3 μl of 5× lysis buffer (SureFire lysis buffer; Perkin Elmer, TGRS5S10K) and incubated for 10 minutes at room temperature with gentle shaking.
For signal detection by AlphaScreen® technology the SureFire phospho-STAT5 (Tyr694Tyr699) kit was used according to instructions provided by the manufacturer (Perkin Elmer, TGRS5S10K). Acceptor beads were added as recommended by the manufacturer (Reactivation buffer/Activation buffer/Acceptor beads at a ratio of 40:10:1) and incubated at room temperature for 1.5 hours with gentle shaking. Then donor beads were added as recommended (Dilution buffer/Donor beads at a ratio of 20:1) and incubated at room temperature for 1.5 hours with gentle shaking. Plates were read on an Envision instrument (Perkin Elmer) with the AlphaScreen protocol. Data were analysed in BioAssay using the nonlinear regression for a sigmoidal dose-response with a variable slope.

T2 sequence (P29597 whole entry): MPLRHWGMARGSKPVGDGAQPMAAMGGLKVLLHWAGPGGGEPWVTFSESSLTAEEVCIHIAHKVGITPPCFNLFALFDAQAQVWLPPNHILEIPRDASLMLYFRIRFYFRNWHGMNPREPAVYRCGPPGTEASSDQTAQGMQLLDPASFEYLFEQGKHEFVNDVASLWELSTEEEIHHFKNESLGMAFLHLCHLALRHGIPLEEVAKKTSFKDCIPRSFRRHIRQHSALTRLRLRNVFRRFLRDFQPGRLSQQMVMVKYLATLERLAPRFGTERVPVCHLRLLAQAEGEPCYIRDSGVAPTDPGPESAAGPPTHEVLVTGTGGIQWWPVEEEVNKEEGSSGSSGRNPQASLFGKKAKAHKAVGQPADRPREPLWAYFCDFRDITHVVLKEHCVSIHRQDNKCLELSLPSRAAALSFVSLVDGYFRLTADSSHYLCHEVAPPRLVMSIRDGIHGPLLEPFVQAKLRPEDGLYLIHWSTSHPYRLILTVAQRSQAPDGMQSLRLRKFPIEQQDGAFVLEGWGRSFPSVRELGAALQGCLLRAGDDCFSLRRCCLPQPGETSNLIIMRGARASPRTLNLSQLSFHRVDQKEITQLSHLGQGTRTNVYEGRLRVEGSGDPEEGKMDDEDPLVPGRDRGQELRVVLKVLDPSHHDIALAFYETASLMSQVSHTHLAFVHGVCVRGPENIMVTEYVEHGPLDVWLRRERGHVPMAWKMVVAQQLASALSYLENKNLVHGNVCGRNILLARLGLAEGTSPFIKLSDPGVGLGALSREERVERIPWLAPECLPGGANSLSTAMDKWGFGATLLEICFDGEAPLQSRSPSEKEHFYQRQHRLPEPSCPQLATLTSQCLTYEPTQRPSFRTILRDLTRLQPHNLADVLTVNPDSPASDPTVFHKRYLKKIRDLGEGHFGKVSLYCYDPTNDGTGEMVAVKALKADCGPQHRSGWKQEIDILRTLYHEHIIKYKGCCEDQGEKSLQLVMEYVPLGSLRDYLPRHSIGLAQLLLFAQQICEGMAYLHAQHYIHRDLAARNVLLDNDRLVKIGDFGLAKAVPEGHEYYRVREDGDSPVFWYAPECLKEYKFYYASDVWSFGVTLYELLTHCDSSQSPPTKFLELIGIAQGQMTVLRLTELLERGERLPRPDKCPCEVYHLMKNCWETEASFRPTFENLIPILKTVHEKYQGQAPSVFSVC
T1 sequence (O60674 whole entry): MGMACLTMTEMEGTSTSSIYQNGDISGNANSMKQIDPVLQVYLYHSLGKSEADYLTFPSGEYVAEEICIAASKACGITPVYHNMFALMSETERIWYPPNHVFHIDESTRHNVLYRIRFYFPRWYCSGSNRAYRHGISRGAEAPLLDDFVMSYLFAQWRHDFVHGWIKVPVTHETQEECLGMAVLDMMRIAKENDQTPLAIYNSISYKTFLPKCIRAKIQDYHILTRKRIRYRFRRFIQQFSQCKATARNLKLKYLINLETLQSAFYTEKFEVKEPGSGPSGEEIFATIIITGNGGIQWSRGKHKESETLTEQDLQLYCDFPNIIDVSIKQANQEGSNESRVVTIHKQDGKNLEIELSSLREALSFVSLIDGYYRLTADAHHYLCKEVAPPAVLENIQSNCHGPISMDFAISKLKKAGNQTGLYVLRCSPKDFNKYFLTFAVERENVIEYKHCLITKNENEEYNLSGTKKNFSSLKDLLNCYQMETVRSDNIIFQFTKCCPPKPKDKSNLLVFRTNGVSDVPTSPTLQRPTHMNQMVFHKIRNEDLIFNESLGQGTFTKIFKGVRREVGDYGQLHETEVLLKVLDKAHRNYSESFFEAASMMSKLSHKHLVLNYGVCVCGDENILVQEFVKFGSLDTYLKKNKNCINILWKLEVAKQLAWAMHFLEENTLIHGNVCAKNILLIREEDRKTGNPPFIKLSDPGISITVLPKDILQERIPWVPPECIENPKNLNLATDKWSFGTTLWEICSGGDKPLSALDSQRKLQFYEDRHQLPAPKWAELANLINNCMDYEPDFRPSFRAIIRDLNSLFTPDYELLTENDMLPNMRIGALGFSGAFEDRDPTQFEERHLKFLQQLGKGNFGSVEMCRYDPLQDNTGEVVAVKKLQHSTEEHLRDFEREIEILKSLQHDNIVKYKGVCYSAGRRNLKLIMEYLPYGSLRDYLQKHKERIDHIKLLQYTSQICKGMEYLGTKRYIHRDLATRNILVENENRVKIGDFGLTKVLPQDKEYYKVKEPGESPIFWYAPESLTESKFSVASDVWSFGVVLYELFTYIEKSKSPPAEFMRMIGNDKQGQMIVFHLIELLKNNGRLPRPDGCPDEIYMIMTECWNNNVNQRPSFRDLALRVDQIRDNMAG

IC50 (JAK2)	IC50 (Tyk2)	IC50 [1]	SMILES
> 10 µM	> 10 µM	0.031 µM	C=CC(=O)Nc1cccc(Cn2ncc3cnc(Nc4cnn(C)c4)nc32)c1 [Example 1, N-(3-((6-((1-Methyl-1H-pyrazol-4-yl)amino)-1H-pyrazolo[3,4-d]pyrimidin-1-yl)methyl)phenyl)acrylamide]
> 10 µM	> 10 µM		CC(=O)Nc1cccc(Cn2ncc3cnc(Nc4cnn(C)c4)nc32)c1 [compound 2, N-(3-((6-((1-methyl-1H-pyrazol-4-yl)amino)-1H-pyrazolo[3,4-d]pyrimidin-1-yl)methyl)phenyl)acetamide, reference compound]
> 10 µM	> 10 µM	2 µM	C=C(C)C(=O)Nc1cccc(Cn2ncc3cnc(Nc4cnn(C)c4)nc32)c1 [Example 5, N-(3-((6-((1-Methyl-1H-pyrazol-4-yl)amino)-1H-pyrazolo[3,4-d]pyrimidin-1-yl)methyl)phenyl)methacrylamide]
> 10 µM	> 10 µM	0.378 µM	C=CC(=O)Nc1cc(Cn2ncc3cnc(Nc4cnn(C)c4)nc32)ccc1F [Example 2, […]]
> 10 µM	6.96 µM	0.033 µM	C#CC(=O)Nc1cccc(Cn2ncc3cnc(Nc4cnn(C)c4)nc32)c1 [Example 3, N-(3-((6-((1-Methyl-1H-pyrazol-4-yl)amino)-1H-pyrazolo[3,4-d]pyrimidin-1-yl)methyl)phenyl)propiolamide]
> 10 µM	0.901 µM	0.079 µM	C=CS(=O)(=O)Nc1cccc(Cn2ccc3cnc(Nc4cnn(C)c4)nc32)c1 [Example 7, N-(3-((2-((1-Methyl-1H-pyrazol-4-yl)amino)-7H-pyrrolo[2,3-d]pyrimidin-7-yl)methyl)phenyl)ethenesulfonamide]
> 10 µM	6.13 µM	0.074 µM	C=CS(=O)(=O)Nc1cccc(Cn2ncc3cnc(Nc4cnn(C)c4)nc32)c1 [Example 4, N-(3-((6-((1-Methyl-1H-pyrazol-4-yl)amino)-1H-pyrazolo[3,4-d]pyrimidin-1-yl)methyl)phenyl)ethenesulfonamide]
